Here are results for six molecules from patent EP2725073B1, “Antifouling coating composition” (Jotun A/S, priority 2012, dated 2014).

The data set in a line: Determination of carbodiimide half-life by IR spectroscopy (reaction with acetic acid in xylene). Particulars: for Half-life: time for 50% of the carbodiimide compound to react with acetic acid in xylene at 23±2°C, carbodiimide absorption at 2100-2200 cm^-1; for Remarks: observation during reaction with acetic acid in xylene at 23±2°C. It is filed as physicochemical. As for the experimental part: In particular, the carbodiimides of the present invention have slower reactivity than those described in US2005/0255081A1. The reactivity of carbodiimide compounds can be expressed as the half-life, i.e. in this case the time it takes for 50% of the carbodiimide compound to react with the carboxylic acid.
The carbodiimide compound preferably has relatively slow reactivity. Reactivity is measured by way of the half-life of the carbodiimide, which is defined as the time taken for 50% of the carbodiimide compound to react with a carboxylic acid.
Solutions of the carbodiimide compounds and acetic acid in xylene are prepared. A carbodiimide solution and the acetic acid solution are mixed and the reaction between the carbodiimide compound and acetic acid at 23±2°C is monitored by following the carbodiimide absorption at 2100-2200 cm^-1 in an zinc selenide cell. The reaction is followed until approximately 50% of the carbodiimide compound has reacted.

Take `Cc1ccc(N=C=Nc2ccc(C)cc2)cc1` [1,3-Di-p-tolylcarbodiimide]: the Half-life is given as 2 h. With `CC(C)N=C=NC(C)C` [1,3-Diisopropylcarbodiimide], the Remarks entry is “Precipitation of urea products” and the Half-life is given as 0.75 h. `Cc1ccccc1N=C=Nc1ccccc1C` [1,3-Di-o-methylphenylcarbodiimide]: the Half-life is recorded as 3 h. On to `C[Si](C)(C)N=C=N[Si](C)(C)C` [1,3-bis(trimethylsilyl)carbodiimide], for which the Remarks result is on record as “No reaction”.

Take `CC(C)c1cccc(C(C)C)c1N=C=Nc1c(C(C)C)cccc1C(C)C` [Bis(2,6-diisopropylphenyl) carbodiimide]: the Half-life is on record as 30 h. As for `C(=NC1CCCCC1)=NC1CCCCC1` [1,3-Dicyclohexylcarbodiimide], the Remarks result is “Precipitation of urea products” and the Half-life stood at 0.25 h.
